US5126347A, “Isomeric dideoxynuclesides” (Hoffmann-La Roche Inc., priority 1989, dated 1992)

Columns and labels:
[1] = test system: HIV, HTLV III; RF strain; test: HIV antigen capture ELISA, virus growth in CD4+ T-lymphocytes; assay type: cell-based; conditions: C8166 CD4+ T-cell line; for IC50: Human immunodeficiency virus 1, T-lymphocyte, supernatant antigen at 72 hours post-infection
Description: The Enzyme Linked Immuno-absorbent Assay (ELISA) was used to test compounds I and II for anti-HIV activity by measuring virus growth in CD4^+ T-lymphocytes by detecting antigen released into the tissue culture supernatant of infected cells.
High titre virus stocks [HIV, HTLV III; RF strain] were grown in H9 cells in RPMI 1640 (Flow Laboratories) supplemented with 10% fetal calf serum, penicillin (100 IU/ml) and streptomycin (100 ug/ml). Cell debris was removed by low speed centrifugation and the supernatant stored at -70° C. until required. The host cell line used in the antiviral assays was the C8166 CD4^+ T-cell line which is particularly susceptible to infection with HIV. Cells were incubated with 10 TCID50, HIV/HTLV III(RF) at 37° C. for 90 minutes and then washed three times with PBSA. Cell aliquots (2×10^5) were resuspended in 1.5 ml growth medium in 6 ml tubes and incubated at 37° C. At 72 hours post-infection, the supernatants from the cell cultures were assayed immediately for HIV antigen.
The antigen capture ELISA used was purchased from Coulter (Luton, UK). The assays were carried out on supernatants taken from infected cell cultures using the steps described by the manufacturers. In each assay the corresponding positive and negative internal controls were included together with a supernatant control taken from uninfected cells. The plates were read using the appropriate spectrophotometric detection system.

[2] = test system: HIV (HTLV-III); test: HIV-cytopathic Effect Inhibition Assay; assay type: cell-based; conditions: survival of drug treated target cells with HIV (HTLV-III), seven days; FIGS. 1 to 3
Description: Compounds I and II were tested in the HIV-cytopathic Effect Inhibition Assay as described in the publication by Mitsuya, et al. Proc. Nat'l Acad. Sci., USA, 83:1911 (1986), which publication is hereby incorporated by reference.
The cells were exposed to either Compound I, Compound II, or AZT, and the survival of drug treated target cells determined seven days thereafter.
The black bars represent survival of compound treated target cells when HIV (HTLV-III) is added. The light bars represent survival of compound treated target cells in the absence of virus.

IC50 [1]	SMILES	antiviral activity in this test system, compared to ddA ([1]; antigen ELISA)	anti-HIV activity relative to known antiretroviral therapeutics (AZT) [2]
3 to 10 µM	Nc1ncnc2c1ncn2[C@H]1CO[C@@H](CO)C1 [Compound I, (2R-cis)-4-(6-Amino-9H-purin-9-yl)tetrahydro-2-furanmethanol]	comparable to that of a known anti-HIV agent ddA	equivalent to that of antiretroviral therapeutics known to have in vivo activity against HIV, most particularly AZT
	Nc1nc2c(ncn2[C@H]2CO[C@@H](CO)C2)c(=O)[nH]1 [Compound II]		equivalent to that of antiretroviral therapeutics known to have in vivo activity against HIV, most particularly AZT
1 to 3 µM	Nc1ncnc2c1ncn2[C@H]1CC[C@@H](CO)O1 [ddA, 2',3'-dideoxyadenosine, reference compound]		
